The values below are quoted from earlier work in US10954181B2, “Process for selectively recovering a phenolic compound from feedstock comprising bio-crude and/or bio-oil” (Research Triangle Institute, priority 2018, dated 2021).

For one data set the following is noted: 25° C., in water; phenolic compounds present in biocrude.
A word on the pKa: it is the negative logarithm of the acid dissociation constant. Consider `Cc1cccc(C)c1O` [2,6-dimethylphenol], for which the “pKa at 25° C. (in water)” value was 10.66. Turning to `CCc1cccc(O)c1` [3-ethylphenol], the “pKa at 25° C. (in water)” value is 9.9. For `CCCc1ccc(O)cc1` [4-propylphenol], the “pKa at 25° C. (in water)” value is 9.98.

On to `O=C(CO)c1ccccc1` [Hydroxyacetophenone], for which the “pKa at 25° C. (in water)” value is 10.16. For `Cc1cccc(O)c1C` [2,3-dimethylphenol], the “pKa at 25° C. (in water)” value was 10.42. Regarding `COc1ccccc1O` [Guaiacol], the “pKa at 25° C. (in water)” value is listed as 9.98. With `CCc1ccc(O)c(OC)c1` [Ethylguaiacol], the “pKa at 25° C. (in water)” value was 10.3. Turning to `COc1cc(CC(=O)O)ccc1O` [Homovanillic acid], the “pKa at 25° C. (in water)” value is 4.36. `C=CCc1ccc(O)c(OC)c1` [Eugenol]: the “pKa at 25° C. (in water)” value is recorded as 10.19. On to `Cc1ccc(O)c(C)c1` [2,4-dimethylphneol], for which the “pKa at 25° C. (in water)” value is given as 10.6. Regarding `C=CCc1cc(C)ccc1O` [2-allyl-4-methylphenol], the “pKa at 25° C. (in water)” value was 10.59. Turning to `Cc1cc(C)c(O)cc1C` [2,4,5-trimethylphenol], the “pKa at 25° C. (in water)” value is 10.57.

Turning to `Cc1cc(C)c(O)c(C)c1` [2,4,6-trimethylphenol], the “pKa at 25° C. (in water)” value was 10.88.

Regarding `Cc1ccc(O)c(O)c1` [4-methylcatechol], the “pKa at 25° C. (in water)” value was 9.91. Turning to `CCCc1ccc(O)c(OC)c1` [Propylguaiacol (Dihydroeugenol), Propylguaiacol], the “pKa at 25° C. (in water)” value is recorded as 10.29. In the case of `COc1cc(CC(C)=O)ccc1O` [Guaiacylacetone], the “pKa at 25° C. (in water)” value was 9.88. For `Cc1cc(C)cc(O)c1` [3,5-dimethylphenol], the “pKa at 25° C. (in water)” value is recorded as 10.38.

Turning to `CCc1ccccc1O` [2-ethylphenol], the “pKa at 25° C. (in water)” value was 10.27. For the molecule Benzenediol (catechol), the “pKa at 25° C. (in water)” value is on record as 9.96.

The same data set, now with this note: Table 1, chemical information of targeted methoxyphenols.
Regarding `COc1ccccc1O` [Guaiacol], the pKa was 9.98. Consider `CCc1ccc(O)c(OC)c1` [Ethylguaiacol], for which the pKa was 10.3. With `CCCc1ccc(O)c(OC)c1` [Propylguaiacol (Dihydroeugenol), Propylguaiacol], the pKa is 10.29.
